Experimental data published in patent US8530386B2, “Herbicidal compositions for tolerant or resistant sugar beet crops” (Bayer Intellectual Property GmbH, priority 1998, dated 2013).
Where a name gives a salt, the structure may show the parent alone.

Tests used:
Type in all cases: in vivo
[1] = system: transgenic sugar beet; experiment: Damage to transgenic sugar beet, field trial (Table 5); settings: application in the 3-5-leaf stage
Protocol: (§1) Transgenic sugar beet plants with resistance to one or more herbicides (A) were grown together with typical weed plants in the open in 2×5 m plots under natural field conditions; alternatively, the weed population established naturally while the sugar beet plants grew. Treatment with the compositions according to the invention and, for control purposes, with separate application of the active ingredients of the components alone, was carried out under standard conditions with a plot sprayer at an application rate of 200-300 liters of water per hectare in parallel trials in accordance with the scheme of Table 1, i.e. pre-sowing/pre-emergence, post-sowing/pre-emergence or post-emergence at the early, medium or late stage.
(§2) At 2, 4, 6 and 8 week intervals after application, the herbicidal activity of the active ingredients or active ingredient mixtures were scored visually by comparing the treated plots with untreated control plots. Damage and development of all aerial plant organs was recorded. The scoring was done using a percentage scale (100% activity=all plants dead, 50% activity=50% of the plants and green plant organs dead, 0% activity=no discernible effect=like control plot). The score values of in each case 4 plots were averaged.
(§3) In contrast, the sugar beet plants suffered no, or only negligible, damage as a consequence of the treatment with the herbicidal compositions.

[2] = system: Galium aparine; experiment: Herbicidal action, field trial (Table 6); settings: application in the 3-5-leaf stage, scoring 4 weeks after application
Protocol: as §1, §2, §3

[3] = system: transgenic sugar beet; experiment: Damage to transgenic sugar beet, field trial (Table 4); settings: application in 3-leaf stage
Protocol: as §1, §2, §3

[4] = system: Setaria viridis; experiment: Herbicidal action, field trial, sequential treatment (Table 8); settings: dose 200 g A.S./ha; post-emergence at the 2-3-leaf stage; scoring 22 days after application
Protocol: as §1
(§4) […] Damage and development of all aerial plant organs was recorded. The scoring was done using a percentage scale (100% activity=all plants dead, 50% activity=50% of the plants and green plant organs dead, 0% activity=no discernible effect=like control plot). The score values of in each case 4 plots were averaged.
as §3

[5] = system: Amaranthus retroflexus; experiment: as above; settings: dose 200 g A.S./ha; post-emergence at the 2-3-leaf stage; scoring 22 days after application
Protocol: as §1, §4, §3

[6] = system: transgenic sugar beet; experiment: Damage to transgenic sugar beet - field trial (Table 2); settings: application in 2-4-leaf stage
Protocol: as §1, §2, §3

[7] = system: Galium aparine; experiment: Herbicidal action in sugar beet crop, greenhouse experiment (Table 3); settings: application in the 4-5-leaf stage, scoring 3 weeks after application
From the text: Seeds or rhizomes of monocotyledonous and dicotyledonous weeds are placed in sandy loam soil in cardboard pots, covered with soil and grown in the greenhouse under good growth conditions. […] The compositions according to the invention, which are formulated as wettable powders or as emulsion concentrates, are sprayed at various dosages onto the green plant organs at an application rate of 600 to 800 l of water per ha (converted). After the experimental plants have remained in the greenhouse for approx. 3 to 4 weeks under optimal growth conditions, the effect of the preparations is scored visually in comparison with untreated controls. The compositions according to the invention also have a good herbicidal activity against a broad spectrum of economically important grass weeds and broad-leaved weeds when applied post-emergence.
In this context, activities of the combinations according to the invention are frequently observed which exceed the formal total of the activities when the herbicides are applied individually. The observed values show, at suitably low dosages, an activity of the combinations which exceed Colby's expected values (cf. scoring in Example 1).

[8] = system: transgenic sugar beet; experiment: Damage to transgenic sugar beet, greenhouse experiment (Table 3); set-up: scale not given here; settings: application in the 4-5-leaf stage
[9] = system: Galium aparine; experiment: Herbicidal action, field trial (Table 7); settings: application in the 4-5-leaf stage, scoring 26 days after application
Protocol: as §1, §4, §3

[10] = system: Avena fatua; experiment: Herbicidal action and selectivity in sugar beet crop, field trial (Table 5); settings: application in the 3-5-leaf stage, scoring 4 weeks after application
Protocol: as §1, §2, §3

Compound: CCOC(=O)C(C)Oc1ccc(Oc2nc3ccc(Cl)cc3o2)cc1 (racemic) [(B3.2), fenoxaprop-ethyl (rac.)]
- Damage to transgenic sugar beet ([1]; dose 15 g A.S./ha): 0
- Damage to transgenic sugar beet ([1]; dose 30 g A.S./ha): 0
- Damage to transgenic sugar beet ([1]; dose 60 g A.S./ha): 0

Compound: CP(=O)(O)CCC(N)C(=O)O (centres unmarked) [(A1.2), glufosinate monoammonium salt]
- Herbicidal action in % against Galium aparine ([2]; dose 250 g A.S./ha): 20%
- Herbicidal action in % against Galium aparine ([2]; dose 300 g A.S./ha): 40%
- Herbicidal action in % against Galium aparine ([2]; dose 600 g A.S./ha): 85%
- Damage to transgenic sugar beet ([3]; dose 0 g A.S./ha): 0
- Damage to transgenic sugar beet ([3]; dose 10 g A.S./ha): 0
- Damage to transgenic sugar beet ([3]; dose 65 g A.S./ha): 0
- Herbicidal action in % against Setaria viridis [4]: 60%
- Herbicidal action in % against Amaranthus retroflexus [5]: 55%
- Damage to transgenic sugar beet ([6]; dose 37.5 g A.S./ha): 0
- Damage to transgenic sugar beet ([6]; dose 75 g A.S./ha): 0
- Damage to transgenic sugar beet ([6]; dose 150 g A.S./ha): 0
- Damage to transgenic sugar beet ([6]; dose 300 g A.S./ha): 0
- Herbicidal action in % against Galium aparine ([7]; dose 125 g A.S./ha): 45%
- Herbicidal action in % against Galium aparine ([7]; dose 250 g A.S./ha): 60%
- Herbicidal action in % against Galium aparine ([7]; dose 500 g A.S./ha): 85%
- Damage to transgenic sugar beet ([8]; dose 125 g A.S./ha): 0
- Damage to transgenic sugar beet ([8]; dose 250 g A.S./ha): 0
- Damage to transgenic sugar beet ([8]; dose 500 g A.S./ha): 0
- Damage to transgenic sugar beet ([1]; dose 150 g A.S./ha): 0
- Damage to transgenic sugar beet ([1]; dose 300 g A.S./ha): 0
- Damage to transgenic sugar beet ([1]; dose 600 g A.S./ha): 0

Compound: CC(C)N.O=C(O)CNCP(=O)(O)O [(A2.2), monoisopropylammonium salt of glyphosate]
- Herbicidal action in % against Galium aparine ([9]; dose 125 g A.S./ha): 10%
- Herbicidal action in % against Galium aparine ([9]; dose 250 g A.S./ha): 40%
- Herbicidal action in % against Galium aparine ([9]; dose 500 g A.S./ha): 60%
- Herbicidal action in % against Galium aparine ([9]; dose 1000 g A.S./ha): 85%

Compound: Cc1nnc(-c2ccccc2)c(=O)n1N [(B1.4), 4-amino-4,5-dihydro-3-methyl-6-phenyl-1,2,4-triazin-5-one]
- Damage to transgenic sugar beet ([8]; dose 750 g A.S./ha): 0
- Damage to transgenic sugar beet ([8]; dose 1500 g A.S./ha): 0
- Damage to transgenic sugar beet ([8]; dose 3000 g A.S./ha): 0

Compound: COC(=O)Nc1cccc(NC(=O)Oc2cccc(C)c2)c1 [(B2.2), 3-methylphenyl N-[3-(methoxycarbonylamino)phenyl]carbamate]
- Herbicidal action in % against Galium aparine ([9]; dose 500 g A.S./ha): 20%
- Herbicidal action in % against Galium aparine ([9]; dose 1000 g A.S./ha): 30%
- Herbicidal action in % against Galium aparine ([9]; dose 2000 g A.S./ha): 30%
- Herbicidal action in % against Galium aparine ([7]; dose 500 g A.S./ha): 20%
- Herbicidal action in % against Galium aparine ([7]; dose 1000 g A.S./ha): 30%
- Herbicidal action in % against Galium aparine ([7]; dose 2000 g A.S./ha): 30%
- Damage to transgenic sugar beet ([8]; dose 500 g A.S./ha): 0
- Damage to transgenic sugar beet ([8]; dose 1000 g A.S./ha): 0
- Damage to transgenic sugar beet ([8]; dose 2000 g A.S./ha): 0

Compound: O=C(O)c1nc(Cl)ccc1Cl [(B2.4), 3,6-dichloropyridine-2-carboxylic acid]
- Damage to transgenic sugar beet ([8]; dose 50 g A.S./ha): 0
- Damage to transgenic sugar beet ([8]; dose 100 g A.S./ha): 0
- Damage to transgenic sugar beet ([8]; dose 200 g A.S./ha): 0

Compound: COC(=O)[C@@H](C)Oc1ccc(Oc2ncc(C(F)(F)F)cc2Cl)cc1 [(B3.4), haloxyfop-P-methyl]
- Damage to transgenic sugar beet ([1]; dose 15 g A.S./ha): 0
- Damage to transgenic sugar beet ([1]; dose 30 g A.S./ha): 0
- Herbicidal action in % against Avena fatua ([10]; dose 15 g A.S./ha): 20%
- Herbicidal action in % against Avena fatua ([10]; dose 30 g A.S./ha): 63%

Compound: CCC/C(=N\OCC)C1=C(O)CC(CC(C)SCC)CC1=O (centres unmarked) [(B4.1), (E,Z)-2-(1-ethoxyiminobutyl)-5-[2-(ethylthio)propyl]-3-hydroxycyclohex-2-enone]
- Damage to transgenic sugar beet ([3]; dose 105 g A.S./ha): 0
- Damage to transgenic sugar beet ([3]; dose 210 g A.S./ha): 0
- Damage to transgenic sugar beet ([3]; dose 315 g A.S./ha): 0

Compound: CCCC(=NOCC)C1=C(O)CC(C2CCCSC2)CC1=O (centres unmarked) [(B4.2), 2-(1-ethoxyiminobuytl)-3-hydroxy-5-thian-3-ylcyclohex-2-enone]
- Damage to transgenic sugar beet ([3]; dose 62.5 g A.S./ha): 0
- Damage to transgenic sugar beet ([3]; dose 125 g A.S./ha): 0
- Damage to transgenic sugar beet ([3]; dose 250 g A.S./ha): 0
